In patent US4255444A, “4-Hydroxy-2-pyrone derivatives having antihyperlipaemic activity” (Sankyo Company Limited, priority 1978, dated 1981):

Each molecule was assayed against cholesterol biosynthesis (crude enzyme extracted from rat liver) (assay: Inhibition of cholesterol biosynthesis by crude enzyme extracted from rat liver (radioactive acetic acid incorporation, digitonin precipitation)). Conditions: 37° C., 60 minutes, compound added at beginning of reaction.
Format: biochemical
Procedure: Crude enzyme extracted from rat liver was reacted with radioactive acetic acid at 37° C. for 60 minutes. The radioactive cholesterol thus biosynthesized was saponified and precipitated with digitonin, and the radioactivity was measured to determine the amount of cholesterol produced. The reaction was repeated, but adding one of the compounds of the invention listed in the following Table at the beginning of the reaction, and the amount of cholesterol biosynthesized was again determined, to give a quantitative measurement of the inhibitory effect of the compounds of the invention. The concentrations (μg/ml) of the compounds of the invention and of a known compound (clofibrate) which gave approximately 50% inhibition of cholesterol biosynthesis are reported in the following Table as I50 values [see Bricker et al, The Journal of Biological Chemistry, 247, 4914 (1972)]. The compounds of the invention are identified in the following Table by the numbers heretofore assigned to them.

SMILES	I50 (concentration giving approximately 50% inhibition of cholesterol biosynthesis) [µg/mL]
O=C1CC(O)CC(CCc2cccc3ccccc23)O1 (centres unmarked) [Compound No. 3, 4-Hydroxy-6-[2-(1-naphthyl)ethyl]-3,4,5,6-tetrahydro-2H-pyran-2-one]	6.4
CC(Oc1ccccc1)C1CC(O)CC(=O)O1 (centres unmarked) [Compound No. 2, 4-Hydroxy-6-(1-phenoxyethyl)-3,4,5,6-tetrahydro-2H-pyran-2-one]	42.3

Other lines, results leading:

I50 (concentration giving approximately 50% inhibition of cholesterol biosynthesis) [µg/mL]	SMILES
21.3	CC(C)(Oc1ccc(Cl)cc1)C1CC(O)CC(=O)O1 (centres unmarked) [Compound No. 4, 6-[1-(4-Chlorophenoxy)-1-methylethyl]-4-hydroxy-3,4,5,6-tetrahydro-2H-pyran-2-one]
0.75	Cc1ccc2ccccc2c1CCC1CC(O)CC(=O)O1 (centres unmarked) [Compound No. 1, 4-Hydroxy-6-[2-(2-methyl-1-naphthyl)ethyl]-3,4,5,6-tetrahydro-2H-pyran-2-one]
250 to 300	CCOC(=O)C(C)(C)Oc1ccc(Cl)cc1 [Clofibrate, reference compound]
